Measured values: PMC8193492, “Yeast Cell-Based Transport Assay for the Functional Characterization of Human 4F2hc-LAT1 and ‐LAT2, and LAT1 and LAT2 Substrates and Inhibitors” (Frontiers in Molecular Biosciences, 2021)
Where “and” joins values, the source holds several entries; their conditions need not be identical. Equal values may be shown once. Read-outs that look alike come from different tables or passages of the source.

Key:
[1] = test system: 4F2hc-LAT2; parameters: method as in Pineda et al. (1999); conditions: host Oocytes; ref Pineda et al. (1999); cited from earlier work
[2] = target: T1, human 4F2hc-LAT1 (Homo sapiens, UniProt Q01650); test: [3H]L-leucine radioligand transport assay, P. pastoris cells expressing 4F2hc-LAT1; format: cell-based
T1 construct: expressed in transfected cells; host or cells: Pichia pastoris KM71H (pPICZB vector)
T1 sequence (Q01650 whole entry, one chain of several): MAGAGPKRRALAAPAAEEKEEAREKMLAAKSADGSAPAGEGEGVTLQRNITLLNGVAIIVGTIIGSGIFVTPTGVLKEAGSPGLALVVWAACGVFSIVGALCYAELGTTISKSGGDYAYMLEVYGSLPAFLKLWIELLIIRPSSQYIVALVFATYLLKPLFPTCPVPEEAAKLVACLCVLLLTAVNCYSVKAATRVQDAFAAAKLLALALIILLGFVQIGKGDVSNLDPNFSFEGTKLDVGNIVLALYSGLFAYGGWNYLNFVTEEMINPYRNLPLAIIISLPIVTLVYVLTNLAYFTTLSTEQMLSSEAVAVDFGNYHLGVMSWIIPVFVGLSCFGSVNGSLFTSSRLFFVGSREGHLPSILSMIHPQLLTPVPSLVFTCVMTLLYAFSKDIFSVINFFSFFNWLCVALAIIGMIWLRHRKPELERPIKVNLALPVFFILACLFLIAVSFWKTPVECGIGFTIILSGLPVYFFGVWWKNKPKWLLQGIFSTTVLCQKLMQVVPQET

[3] = test system: 4F2hc-LAT1; parameters: method as in Kantipudi et al. (2020); conditions: host Pichia pastoris, ref Kantipudi et al. (2020), cited from earlier work
[4] = target: T2, human LAT2 (Homo sapiens, UniProt Q9UHI5); test: [3H]L-leucine radioligand transport assay, P. pastoris cells expressing LAT2; format: cell-based; conditions: P. pastoris KM71H cells, OD600 0.75, 0.1 µM [3H]L-leucine, 10 min uptake, 25°C
T2 construct: expressed in transfected cells; host or cells: Pichia pastoris KM71H (pPICZB vector)
T2 sequence (Q9UHI5 1-535): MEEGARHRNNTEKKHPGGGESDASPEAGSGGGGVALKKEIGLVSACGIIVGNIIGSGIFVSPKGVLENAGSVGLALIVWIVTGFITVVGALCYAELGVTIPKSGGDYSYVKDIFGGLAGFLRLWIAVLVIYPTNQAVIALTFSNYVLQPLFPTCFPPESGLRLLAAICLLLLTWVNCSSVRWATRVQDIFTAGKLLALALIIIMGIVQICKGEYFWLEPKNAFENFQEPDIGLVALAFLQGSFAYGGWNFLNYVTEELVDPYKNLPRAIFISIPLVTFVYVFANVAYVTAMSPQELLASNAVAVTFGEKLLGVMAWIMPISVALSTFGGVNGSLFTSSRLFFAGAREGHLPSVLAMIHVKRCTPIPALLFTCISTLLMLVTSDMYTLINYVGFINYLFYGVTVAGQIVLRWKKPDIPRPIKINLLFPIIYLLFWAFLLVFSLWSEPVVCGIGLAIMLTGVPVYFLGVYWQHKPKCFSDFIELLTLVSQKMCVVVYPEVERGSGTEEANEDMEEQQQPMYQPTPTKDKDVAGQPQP

[5] = test system: 4F2hc-LAT1; conditions: host Oocytes, cited from earlier work
[6] = test system: 4F2hc-LAT2; parameters: method as in Kantipudi et al. (2020); conditions: host Pichia pastoris, ref Kantipudi et al. (2020), cited from earlier work
[7] = target: T3, human LAT1 (Homo sapiens, UniProt Q01650); test: cell-based
T3 sequence (Q01650 whole entry): as the sequence (Q01650 whole entry, one chain of several) above
Experimental: (§1) Resulting cells were resuspended in transport buffer (150 mM choline chloride, 1 mM MgCl2, 1 mM CaCl2, 10 mM Tris-HEPES, pH 7.4) containing 50% (v/v) glycerol and the OD600 was adjusted to 40. Cells were stored at −18°C until further use.
(§2) For transport studies, 1 ml of thawed P. pastoris cells (OD600 40) expressing the corresponding transporter were diluted in 50 ml transport buffer and pelleted by centrifugation (3,000 × g, 15 min, room temperature). The pellet was then washed by resuspending it in 50 mL transport buffer and by repeating the washing procedure (centrifugation and resuspension) two times. Finally, the cell pellet was resuspended in 2 ml of transport buffer and incubated for 20 min at 30°C under agitation (300 rpm, Multitron, Infors HT, Bottmingen, Switzerland). […] All transport experiments were performed in a reaction volume of 100 µL. […] The competitors were prepared in 100% (v/v) DMSO. The final DMSO concentration was always 0.5% (v/v), independently of which final substrate or inhibitor concentration was used in the assay. Control samples contained the same concentration of DMSO. Final OD600 values in uptake experiments were 0.75 for all cells (4F2hc-LAT1, LAT1, 4F2hc-LAT2 or LAT2 expressing cells) and untransformed P. pastoris KM71H cells. All transport reactions were done in 2 ml reaction tubes (Eppendorf, Hamburg, Germany) at 25°C under agitation (1,000 rpm, Thermomixer compact, Eppendorf, Hamburg, Germany). Uptakes were terminated after 10 min (uptake time) for all cells by adding 600 µL of pre-chilled transport buffer. Cells were rapidly separated from the buffer by transferring the stopped reactions on a 96-well 0.66 mm glass fiber filter plate (Corning FiltrEX, Corning, NY, United States) and vacuum filtration. Each well was washed with 2 ml of ice-cold transport buffer to remove free radioligand. The plate was then dried overnight at 37°C, and the backside was sealed with a BackSeal (PerkinElmer, Waltham, MA, United States). The trapped radioligand was released by addition of 200 µL scintillation cocktail (MicroScint 40, PerkinElmer, Waltham, MA, United States) to each well, and the plate topside was sealed with Topseal^TM-A Plus (PerkinElmer, Waltham, MA, United States), followed by incubation for 30 min at 25°C and 1,000 rpm (Thermomixer compact, Eppendorf, Hamburg, Germany). Counts were measured in each well for 2 min with a scintillation counter (TopCount NXT, PerkinElmer, Waltham, MA, United States).
(§3) Experiments were performed at least in triplicate. For data analysis, the signal of the untransformed P. pastoris cells was subtracted from the transporter signal to obtain the net transport signal. Data from three independent experiments were taken. […] Every experimental data point was then individually normalized using the corresponding upper plateau values (i.e., the fitted upper plateau value that corresponds to 100%). Single, normalized data points from the three independent experiments were averaged and a sigmoidal model curve was fitted to the data in order to obtain the IC50 values. Prism6 (GraphPad Software) was used for data analysis.

[8] = target: T4, human 4F2hc-LAT2 (Homo sapiens, UniProt Q9UHI5); test: [3H]L-leucine radioligand transport assay, P. pastoris cells expressing 4F2hc-LAT2; format: cell-based; conditions: P. pastoris KM71H cells, OD600 0.75, 0.1 µM [3H]L-leucine, 10 min uptake, 25°C; read-out: IC50 of L-leucine uptake, 4F2hc-LAT2 (this work)
T4 construct: expressed in transfected cells; host or cells: Pichia pastoris KM71H (pPICZB vector)
T4 sequence (Q9UHI5 1-535): T2 sequence (Q9UHI5 1-535)
T4 sequence (P08195 1-529 partner): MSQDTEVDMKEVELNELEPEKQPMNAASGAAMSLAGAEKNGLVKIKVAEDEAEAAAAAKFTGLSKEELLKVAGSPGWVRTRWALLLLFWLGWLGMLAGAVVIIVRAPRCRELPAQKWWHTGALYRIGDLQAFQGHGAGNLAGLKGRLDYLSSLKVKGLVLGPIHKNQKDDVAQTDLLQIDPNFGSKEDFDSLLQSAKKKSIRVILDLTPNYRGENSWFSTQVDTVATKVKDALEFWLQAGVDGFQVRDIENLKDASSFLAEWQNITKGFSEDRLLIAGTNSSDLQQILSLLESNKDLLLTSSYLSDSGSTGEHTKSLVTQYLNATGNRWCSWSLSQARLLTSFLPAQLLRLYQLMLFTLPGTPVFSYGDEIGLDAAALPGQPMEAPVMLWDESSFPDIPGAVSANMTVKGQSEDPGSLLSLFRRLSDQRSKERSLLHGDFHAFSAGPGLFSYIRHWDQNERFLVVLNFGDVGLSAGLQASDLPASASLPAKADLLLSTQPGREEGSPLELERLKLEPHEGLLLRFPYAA

[9] = test system: 4F2hc-LAT1; parameters: method as in Yun et al. (2014); conditions: host YD-38; ref Yun et al. (2014); read-out: 4F2hc-LAT1 IC50 of L-leucine uptake; cited from earlier work
[10] = test system: 4F2hc-LAT1; conditions: host Saos2, read-out: 4F2hc-LAT1 IC50 of L-leucine uptake, cited from earlier work
[11] = test system: 4F2hc-LAT1; parameters: method as in Khunweeraphong et al. (2012); conditions: host HEK293; ref Khunweeraphong et al. (2012); read-out: 4F2hc-LAT1 IC50 of L-leucine uptake; cited from earlier work
[12] = target: T4, human 4F2hc-LAT2; conditions: cited from earlier work; for IC50: host S2 cells, read-out: 4F2hc-LAT2 IC50 of L-leucine uptake
[13] = test system: 4F2hc-LAT1; parameters: method as in Kim et al. (2008); conditions: host C6 cells; reference cell empty, line above: ref Kim et al. (2008); read-out: 4F2hc-LAT1 IC50 of L-leucine uptake; cited from earlier work
[14] = test system: 4F2hc-LAT1; conditions: cited from earlier work; for IC50: read-out: 4F2hc-LAT1 IC50 of L-leucine uptake
[15] = test system: 4F2hc-LAT1; parameters: method as in Kim et al. (2008); conditions: host KB cells; ref Kim et al. (2008); read-out: 4F2hc-LAT1 IC50 of L-leucine uptake; cited from earlier work
[16] = test system: 4F2hc-LAT1; parameters: method as in Häfliger et al. (2018); conditions: host 8505c; ref Häfliger et al. (2018); read-out: 4F2hc-LAT1 IC50 of L-leucine uptake; cited from earlier work
[17] = test system: 4F2hc-LAT1; parameters: method as in Yothaisong et al. (2017); conditions: host KKU-100; ref Yothaisong et al. (2017); read-out: 4F2hc-LAT1 IC50 of L-leucine uptake; cited from earlier work
[18] = target: T3, human LAT1; conditions: Pichia cells expressing the light subunits alone
Experimental: as §1, §2, §3

[19] = test system: 4F2hc-LAT1; parameters: method as in Häfliger et al. (2018); conditions: host HT-29; ref Häfliger et al. (2018); read-out: 4F2hc-LAT1 IC50 of L-leucine uptake; cited from earlier work
[20] = test system: 4F2hc-LAT1; parameters: method as in Yothaisong et al. (2017); conditions: host KKU-213; ref Yothaisong et al. (2017); read-out: 4F2hc-LAT1 IC50 of L-leucine uptake; cited from earlier work
[21] = test system: 4F2hc-LAT1; parameters: method as in Yothaisong et al. (2017); conditions: host KKU-055; ref Yothaisong et al. (2017); read-out: 4F2hc-LAT1 IC50 of L-leucine uptake; cited from earlier work
[22] = test system: 4F2hc-LAT1; parameters: method as in Häfliger et al. (2018); conditions: host SW1736; ref Häfliger et al. (2018); read-out: 4F2hc-LAT1 IC50 of L-leucine uptake; cited from earlier work
[23] = P. pastoris KM71H cells, OD600 0.75, 0.1 µM [3H]L-leucine, 10 min uptake, 25°C, read-out: IC50 of L-leucine uptake, 4F2hc-LAT1 (this work)

Structure (SMILES): CC(C)C[C@H](N)C(=O)O [L-leucine]
- Km [1]: 220 µM
- IC50 [2, 23]: 22 µM
- IC50 ([3]; read-out: 4F2hc-LAT1 IC50 of L-leucine uptake): 38 µM
- Km ([3]; read-out: 4F2hc-LAT1 KM of L-leucine uptake): 25 ± 3 µM
- IC50 [4]: 39 µM
- Km ([5]; ref Friesema et al. (2001)): 46 µM
- Km ([5]; ref Kanai et al. (1998)): 18.1 ± 3.4 µM
- Km ([5]; ref Yanagida et al. (2001)): 19.7 ± 4.1 µM
- IC50 ([6]; read-out: 4F2hc-LAT2 IC50 of L-leucine uptake): 221 µM
- Km ([6]; read-out: 4F2hc-LAT2 KM of L-leucine uptake): 249 ± 22 µM
- IC50 [7]: 9 µM
- IC50 [8]: 210 µM

Structure (SMILES): NC1(C(=O)O)CC2CCC1C2 (stereo not shown) [BCH, 2-aminobicyclo-(2,2,1)-heptane-2-carboxylic acid]
- IC50 [9]: 92.6 ± 8.9 µM
- IC50 [2, 23]: 72 µM
- specificity for 4F2hc-LAT1 compared with 4F2hc-LAT2 (from IC50s) ([2]; P. pastoris cell assay): about 2.7 fold
- IC50 ([10]; ref Choi et al. (2017)): 72.2 ± 0.92 µM
- IC50 ([10]; ref Kim et al. (2008)): 78.8 ± 3.5 µM
- IC50 [4]: 184 µM
- IC50 [11]: 78.3 ± 12.1 µM
- IC50 ([12]; ref Morimoto et al. (2008)): 315 ± 68.6 µM
- IC50 [13]: 73.1 ± 4.5 µM
- IC50 ([14]; host S2 cells, ref Morimoto et al. (2008)): 132 ± 27.8 µM
- IC50 [15]: 75.3 ± 6.7 µM
- IC50 [7]: 78 µM
- IC50 [8]: 195 µM

Structure (SMILES): NC(Cc1cc(I)c(Oc2cc(I)c(O)c(I)c2)c(I)c1)C(=O)O (stereo not shown) [T4, thyroxine]
- IC50 [2]: 10 µM
- specificity for 4F2hc-LAT1 compared with 4F2hc-LAT2 (from IC50s) ([2]; P. pastoris cell assay): about four-times higher
- IC50 [4]: 25 µM
- Km ([5]; ref Friesema et al. (2001)): 7.9 µM
- Km ([5]; ref Ritchie et al. (1999)): 6.3 µM
- Ki ([14]; host S2 cells, ref Morimoto et al. (2008), read-out: 4F2hc-LAT1 Ki of L-leucine uptake): 115 ± 2 µM
- IC50 [7]: 8 µM
- IC50 [8]: 42 µM

Structure (SMILES): N[C@@H](Cc1cc(I)c(Oc2ccc(O)c(I)c2)c(I)c1)C(=O)O [T3, triiodothyronine]
- Km ([5]; ref Friesema et al. (2001)): 0.8 µM
- Km ([5]; ref Ritchie et al. (1999)): 1.8 µM

Structure (SMILES): Nc1cc(COc2c(Cl)cc(C[C@H](N)C(=O)O)cc2Cl)c2oc(-c3ccccc3)nc2c1 [JPH203, (S)-2-amino-3-(4-((5-amino-2-phenylbenzo [d]oxazol-7-yl)-methoxy)-3,5-dichlorophenyl)-propanoic acid]
- IC50 [9]: 0.79 ± 0.06 µM
- IC50 [2, 23]: 0.197 µM
- IC50(Pichia-4F2hc-LAT2)/IC50(Pichia-4F2hc-LAT1) ratio ([2]; P. pastoris cell assay): about 7.6
- specificity for 4F2hc-LAT1 compared with 4F2hc-LAT2 (from IC50s) ([2]; P. pastoris cell assay): about 7.6 fold
- IC50 [16]: 0.12 µM
- IC50 ([10]; ref Choi et al. (2017)): 1.31 ± 0.27 µM
- IC50 [4]: 1.7 µM
- inhibition of human 4F2hc-LAT2 ([12]; S2 cell-based assay, at 10 µM, ref Endou et al. (2008)): almost no inhibition
- IC50 ([12]; ref Oda et al. (2010)): > 10 µM
- IC50 [17]: 0.25 ± 0.04 µM
- IC50(Pichia-LAT2)/IC50(Pichia-LAT1) ratio [18]: about 4.9
- IC50 [19]: 0.134 µM
- IC50 [20]: 0.12 ± 0.02 µM
- IC50 [21]: 0.2 ± 0.03 µM
- IC50(S2-LAT2)/IC50(S2-LAT1) ratio ([14]; S2 cells, ref Oda et al. (2010)): > 500
- IC50 ([14]; host S2 cells, ref Endou et al. (2008)): 0.19 µM and 0.2 µM
- IC50 ([14]; host S2 cells, ref Oda et al. (2010)): 0.14 µM
- IC50 [7]: 0.346 µM
- IC50 [22]: 0.177 µM
- IC50 [8]: 1.5 µM
